Values after ≈ are worked out from the molar mass of the structure shown.
How the values were obtained:
Homo sapiens [1] = species on record: Homo sapiens; test: Selectivity index, ratio of IC50 for human recombinant TYK2 to IC50 for human recombinant JAK1
Homo sapiens [2] = species on record: Homo sapiens; test: Selectivity index, ratio of IC50 for human recombinant JAK3 to IC50 for human recombinant JAK1
Homo sapiens [3] = species on record: Homo sapiens; test: Selectivity index, ratio of IC50 for human recombinant JAK2 to IC50 for human recombinant JAK1
[4] = target: T1, Tyrosine-protein kinase JAK1 (Homo sapiens, UniProt P23458); test: Inhibition of human recombinant JAK1
[5] = Kinetic solubility of the compound at pH 7.4; details: buffer
[6] = Plasma protein binding in rat
[7] = Half life in rat at 5 mg/kg, po; type: ADME, organism-based; design: dose 5 mg/kg, route oral; details: in vivo
[8] = Tmax in rat at 5 mg/kg, po; type: ADME, organism-based; design: dose 5 mg/kg, route oral; details: in vivo
[9] = AUC (0 to infinity) in rat at 5 mg/kg, po; type: ADME, organism-based; design: time infinity, dose 5 mg/kg, route oral; details: plasma
[10] = Metabolic stability in rat liver microsomes assessed as compound remaining after 60 mins; type: ADME; details: read-out: Stability
[11] = target: T2, Tyrosine-protein kinase JAK2 (Homo sapiens, UniProt O60674); test: Inhibition of JAK2 in human whole blood assessed as inhibition of GM-CSF-induced pSTAT5
[12] = target: T1, Tyrosine-protein kinase JAK1; test: Inhibition of JAK1 in human whole blood assessed as inhibition of IL-6-induced pSTAT1
[13] = Clearance in rat at 1 mg/kg, iv; type: ADME, organism-based; design: dose 1 mg/kg, route intravenous; details: in vivo
[14] = Oral bioavailability in rat at 5 mg/kg; type: ADME, organism-based; details: in vivo
[15] = Half life in rat at 1 mg/kg, iv; type: ADME, organism-based; design: dose 1 mg/kg, route intravenous; details: in vivo
[16] = AUC (0 to infinity) in rat at 1 mg/kg, iv; type: ADME, organism-based; design: time infinity, dose 1 mg/kg, route intravenous; details: plasma
[17] = Bioavailability in rat at 1 mg/kg, iv; type: ADME, organism-based; details: in vivo
[18] = Inhibition of PKA (unknown origin); design: species or system Homo sapiens
[19] = target: Mitogen-activated protein kinase 14 (Homo sapiens, UniProt Q16539); test: Inhibition of p38alpha (unknown origin)
[20] = target: Fibroblast growth factor receptor 3 (Homo sapiens, UniProt P22607); test: Inhibition of FGFR3 (unknown origin)
[21] = target: Serine/threonine-protein kinase TBK1 (Homo sapiens, UniProt Q9UHD2); test: Inhibition of TBK1 (unknown origin)
[22] = target: MAP kinase-activated protein kinase 5 (Homo sapiens, UniProt Q8IW41); test: Inhibition of MAPKAPK5 (unknown origin)
[23] = target: Tyrosine-protein kinase Lck (Homo sapiens, UniProt P06239); test: Inhibition of LCK (unknown origin)
[24] = target: T2, Tyrosine-protein kinase JAK2; test: Inhibition of human recombinant JAK2
[25] = target: Cyclin-dependent kinase 2 (Homo sapiens, UniProt P24941); test: Inhibition of CDK2 (unknown origin)
[26] = target: Receptor-interacting serine/threonine-protein kinase 2 (Homo sapiens, UniProt O43353); test: Inhibition of RIPK2 (unknown origin)
[27] = target: Protein-tyrosine kinase 2-beta (Homo sapiens, UniProt Q14289); test: Inhibition of PYK2 (unknown origin)
[28] = target: Mitogen-activated protein kinase kinase kinase 7 (Homo sapiens, UniProt O43318); test: Inhibition of TAK1 (unknown origin)
[29] = target: Rho-associated protein kinase 1 (Homo sapiens, UniProt Q13464); test: Inhibition of ROCK1 (unknown origin)
[30] = target: Inhibitor of nuclear factor kappa-B kinase subunit beta (Homo sapiens, UniProt O14920); test: Inhibition of IKKbeta (unknown origin)
[31] = target: Tyrosine-protein kinase JAK3 (Homo sapiens, UniProt P52333); test: Inhibition of human recombinant JAK3
[32] = target: Glycogen synthase kinase-3 beta (Homo sapiens, UniProt P49841); test: Inhibition of GSK3beta (unknown origin)
[33] = target: Tyrosine-protein kinase SYK (Homo sapiens, UniProt P43405); test: Inhibition of SYK (unknown origin)
[34] = target: Non-receptor tyrosine-protein kinase TYK2 (Homo sapiens, UniProt P29597); test: Inhibition of human recombinant TYK2

T2 sequence (O60674 whole entry): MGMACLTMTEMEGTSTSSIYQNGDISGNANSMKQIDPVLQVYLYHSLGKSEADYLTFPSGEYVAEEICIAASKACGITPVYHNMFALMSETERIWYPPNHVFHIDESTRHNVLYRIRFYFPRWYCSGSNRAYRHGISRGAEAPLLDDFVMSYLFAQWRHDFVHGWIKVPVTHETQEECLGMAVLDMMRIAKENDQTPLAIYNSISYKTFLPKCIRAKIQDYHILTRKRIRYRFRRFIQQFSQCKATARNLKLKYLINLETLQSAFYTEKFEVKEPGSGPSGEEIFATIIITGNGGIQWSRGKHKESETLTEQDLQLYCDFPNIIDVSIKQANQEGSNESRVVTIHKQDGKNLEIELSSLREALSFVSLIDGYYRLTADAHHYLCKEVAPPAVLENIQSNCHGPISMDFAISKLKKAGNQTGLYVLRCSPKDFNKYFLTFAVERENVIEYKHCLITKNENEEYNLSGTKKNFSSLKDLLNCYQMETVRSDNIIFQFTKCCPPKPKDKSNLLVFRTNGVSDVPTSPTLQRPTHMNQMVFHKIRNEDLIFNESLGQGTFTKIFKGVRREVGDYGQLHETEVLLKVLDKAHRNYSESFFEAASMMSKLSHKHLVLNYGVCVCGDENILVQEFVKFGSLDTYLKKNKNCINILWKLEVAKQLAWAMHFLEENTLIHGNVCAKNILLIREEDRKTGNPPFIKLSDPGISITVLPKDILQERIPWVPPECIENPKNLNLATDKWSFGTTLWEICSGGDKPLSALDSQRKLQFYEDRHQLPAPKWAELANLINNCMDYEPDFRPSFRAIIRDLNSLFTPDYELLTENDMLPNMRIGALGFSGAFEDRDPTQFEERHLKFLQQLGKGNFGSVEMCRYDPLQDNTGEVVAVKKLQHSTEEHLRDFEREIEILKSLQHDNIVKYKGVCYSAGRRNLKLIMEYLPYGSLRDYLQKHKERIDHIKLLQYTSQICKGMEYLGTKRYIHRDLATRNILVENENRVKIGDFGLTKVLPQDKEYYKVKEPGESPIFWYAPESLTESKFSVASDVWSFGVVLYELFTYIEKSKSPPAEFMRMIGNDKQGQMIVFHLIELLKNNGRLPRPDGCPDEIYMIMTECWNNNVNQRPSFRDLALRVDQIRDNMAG
T1 sequence (P23458 whole entry): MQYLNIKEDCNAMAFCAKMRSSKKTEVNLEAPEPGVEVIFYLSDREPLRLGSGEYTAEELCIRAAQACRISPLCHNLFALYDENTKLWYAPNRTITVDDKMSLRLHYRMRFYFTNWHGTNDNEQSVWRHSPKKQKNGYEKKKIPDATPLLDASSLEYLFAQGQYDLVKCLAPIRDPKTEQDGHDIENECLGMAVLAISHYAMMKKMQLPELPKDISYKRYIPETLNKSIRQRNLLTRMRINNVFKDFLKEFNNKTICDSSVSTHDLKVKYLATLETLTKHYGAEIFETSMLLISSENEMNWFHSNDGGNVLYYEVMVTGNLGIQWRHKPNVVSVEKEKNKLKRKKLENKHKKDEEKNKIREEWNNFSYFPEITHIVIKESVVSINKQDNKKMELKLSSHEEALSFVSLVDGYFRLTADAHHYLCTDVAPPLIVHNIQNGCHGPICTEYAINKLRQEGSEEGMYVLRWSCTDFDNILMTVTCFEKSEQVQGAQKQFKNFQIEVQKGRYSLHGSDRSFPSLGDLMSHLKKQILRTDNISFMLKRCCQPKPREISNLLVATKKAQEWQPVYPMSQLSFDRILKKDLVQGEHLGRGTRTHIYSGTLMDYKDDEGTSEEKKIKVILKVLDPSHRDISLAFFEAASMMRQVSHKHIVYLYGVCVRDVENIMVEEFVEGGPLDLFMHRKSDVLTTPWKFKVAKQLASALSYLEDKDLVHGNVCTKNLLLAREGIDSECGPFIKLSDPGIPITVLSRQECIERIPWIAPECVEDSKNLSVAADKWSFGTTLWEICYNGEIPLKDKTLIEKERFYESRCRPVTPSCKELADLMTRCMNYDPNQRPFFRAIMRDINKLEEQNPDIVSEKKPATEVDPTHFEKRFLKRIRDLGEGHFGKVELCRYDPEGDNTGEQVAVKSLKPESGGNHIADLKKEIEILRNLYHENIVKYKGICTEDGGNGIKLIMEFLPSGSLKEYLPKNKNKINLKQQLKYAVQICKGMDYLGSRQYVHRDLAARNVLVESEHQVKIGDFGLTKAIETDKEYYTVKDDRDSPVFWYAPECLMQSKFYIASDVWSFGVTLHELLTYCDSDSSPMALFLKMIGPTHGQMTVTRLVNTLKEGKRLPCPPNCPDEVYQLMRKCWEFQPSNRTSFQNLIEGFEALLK
Rho-associated protein kinase 1, sequence (Q13464 whole entry): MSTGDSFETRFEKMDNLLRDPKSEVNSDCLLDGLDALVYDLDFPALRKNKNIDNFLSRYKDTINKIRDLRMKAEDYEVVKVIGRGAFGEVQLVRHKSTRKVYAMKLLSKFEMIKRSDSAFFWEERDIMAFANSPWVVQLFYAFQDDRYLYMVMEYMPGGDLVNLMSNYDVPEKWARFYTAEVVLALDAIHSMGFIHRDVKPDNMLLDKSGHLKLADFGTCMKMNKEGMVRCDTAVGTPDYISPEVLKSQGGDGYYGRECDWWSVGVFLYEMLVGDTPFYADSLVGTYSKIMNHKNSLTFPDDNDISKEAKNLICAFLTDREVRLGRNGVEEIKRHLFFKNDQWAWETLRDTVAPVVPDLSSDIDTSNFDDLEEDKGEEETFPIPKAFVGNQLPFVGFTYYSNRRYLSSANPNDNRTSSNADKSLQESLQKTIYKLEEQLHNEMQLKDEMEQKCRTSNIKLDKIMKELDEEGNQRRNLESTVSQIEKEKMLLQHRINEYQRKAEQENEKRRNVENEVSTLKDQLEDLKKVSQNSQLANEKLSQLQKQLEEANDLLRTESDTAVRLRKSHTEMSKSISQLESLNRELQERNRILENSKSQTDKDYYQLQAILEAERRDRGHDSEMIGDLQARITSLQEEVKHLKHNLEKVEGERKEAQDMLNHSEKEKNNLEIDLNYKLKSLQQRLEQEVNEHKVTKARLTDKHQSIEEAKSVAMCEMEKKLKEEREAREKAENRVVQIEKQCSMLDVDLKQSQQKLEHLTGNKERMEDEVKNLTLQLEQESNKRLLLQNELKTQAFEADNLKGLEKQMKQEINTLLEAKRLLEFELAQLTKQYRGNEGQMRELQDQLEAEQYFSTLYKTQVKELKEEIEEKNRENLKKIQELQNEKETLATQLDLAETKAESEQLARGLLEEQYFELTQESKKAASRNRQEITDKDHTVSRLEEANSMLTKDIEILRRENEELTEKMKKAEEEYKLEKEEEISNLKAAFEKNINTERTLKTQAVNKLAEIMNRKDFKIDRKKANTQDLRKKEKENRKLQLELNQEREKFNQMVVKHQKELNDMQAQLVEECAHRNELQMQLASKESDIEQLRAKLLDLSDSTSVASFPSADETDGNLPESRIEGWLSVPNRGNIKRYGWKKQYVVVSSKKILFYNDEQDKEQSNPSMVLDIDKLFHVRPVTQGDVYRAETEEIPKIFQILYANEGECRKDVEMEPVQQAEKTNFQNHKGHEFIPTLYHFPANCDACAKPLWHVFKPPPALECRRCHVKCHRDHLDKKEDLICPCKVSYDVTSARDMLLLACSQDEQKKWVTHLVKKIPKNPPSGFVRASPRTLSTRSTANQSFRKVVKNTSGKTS
Mitogen-activated protein kinase kinase kinase 7, sequence (O43318 whole entry): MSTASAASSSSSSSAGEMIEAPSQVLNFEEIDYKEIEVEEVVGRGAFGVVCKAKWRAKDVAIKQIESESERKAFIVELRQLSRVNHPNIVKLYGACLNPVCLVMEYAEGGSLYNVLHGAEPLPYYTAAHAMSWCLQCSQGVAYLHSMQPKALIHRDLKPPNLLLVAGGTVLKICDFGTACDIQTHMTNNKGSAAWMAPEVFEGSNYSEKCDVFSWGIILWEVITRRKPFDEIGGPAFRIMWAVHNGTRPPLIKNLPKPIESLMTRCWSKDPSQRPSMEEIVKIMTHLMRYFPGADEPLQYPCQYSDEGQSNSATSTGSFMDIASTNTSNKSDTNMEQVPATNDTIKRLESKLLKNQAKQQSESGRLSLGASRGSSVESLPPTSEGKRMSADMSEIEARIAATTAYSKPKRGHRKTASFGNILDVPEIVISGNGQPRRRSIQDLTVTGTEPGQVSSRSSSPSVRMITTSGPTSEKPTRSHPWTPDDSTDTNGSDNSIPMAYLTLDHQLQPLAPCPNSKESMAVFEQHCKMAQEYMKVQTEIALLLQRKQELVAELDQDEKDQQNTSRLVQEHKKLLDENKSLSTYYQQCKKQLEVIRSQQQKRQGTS
Inhibitor of nuclear factor kappa-B kinase subunit beta, sequence (O14920 whole entry): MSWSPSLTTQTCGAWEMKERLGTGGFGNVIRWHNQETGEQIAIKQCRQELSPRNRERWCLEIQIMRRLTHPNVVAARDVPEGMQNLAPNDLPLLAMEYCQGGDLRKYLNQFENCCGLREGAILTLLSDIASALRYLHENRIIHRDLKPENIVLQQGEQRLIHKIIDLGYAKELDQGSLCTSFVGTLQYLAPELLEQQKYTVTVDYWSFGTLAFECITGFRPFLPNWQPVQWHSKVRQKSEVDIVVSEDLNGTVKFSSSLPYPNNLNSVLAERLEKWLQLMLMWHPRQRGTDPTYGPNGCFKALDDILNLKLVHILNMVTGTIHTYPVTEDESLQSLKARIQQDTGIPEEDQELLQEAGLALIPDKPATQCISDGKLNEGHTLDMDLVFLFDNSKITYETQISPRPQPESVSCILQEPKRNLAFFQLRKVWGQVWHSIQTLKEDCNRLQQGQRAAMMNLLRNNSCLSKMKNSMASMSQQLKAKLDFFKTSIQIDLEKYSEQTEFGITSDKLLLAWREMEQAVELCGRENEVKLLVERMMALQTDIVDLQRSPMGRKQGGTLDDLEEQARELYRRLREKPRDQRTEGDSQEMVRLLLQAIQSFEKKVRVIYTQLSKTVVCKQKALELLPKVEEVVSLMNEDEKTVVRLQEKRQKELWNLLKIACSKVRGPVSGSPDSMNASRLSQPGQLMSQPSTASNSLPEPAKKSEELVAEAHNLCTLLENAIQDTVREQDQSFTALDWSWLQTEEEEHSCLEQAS

SMILES	Ratio IC50 (Homo sapiens [1])	Ratio IC50 (Homo sapiens [2])	Ratio IC50 (Homo sapiens [3])	IC50 ([4]; read-out: IC50) [nM]	other results
COc1ccccc1-c1cccc2nc(NC(=O)C3CC3)nn12	2.8	2	1.5	371	
N#CCc1ccccc1NCc1ccc(-c2cccc3nc(NC(=O)C4CC4)nn23)cc1	9	26	11.4	1.4	solubility kinetic [5]: 9.4 µg/mL (≈ 22.2 µM); fraction unbound [6]: 0.01
O=C(Nc1nc2cccc(-c3ccc(CN4CCC(F)(F)CC4)cc3)n2n1)C1CC1	3.2	8.7	1.1	27	half-life [7]: 55.2 min; solubility kinetic [5]: 27 µg/mL (≈ 65.6 µM); Tmax [8]: 15 min; AUC(0-inf) [9]: 690 ng·h/mL; remaining at 1 h [10]: 26%; IC50 [11]: > 10000 nM; IC50 [12]: 2750 nM; fraction unbound [6]: 0.3
CCOc1ccc(-c2cccc3nc(NC(=O)C4CC4)nn23)cc1			2	27	
O=C(Nc1nc2cccc(-c3ccccc3)n2n1)C1CC1	4.1	7.1	2.3	184	
CCOc1ccc(-c2c(OC)ccc3nc(NC(=O)C4CC4)nn23)cc1			> 1	3010	
COc1ccc(-c2cccc3nc(Nc4ccc(NC(C)=O)cc4)nn23)cc1			0.9	2.8	
COCc1cccc(-c2cccc3nc(NC(=O)C4CC4)nn23)c1	2.8	3.8	0.9	572	
CC(C)(C)OCc1ccccc1-c1cccc2nc(NC(=O)C3CC3)nn12				> 10000	
COc1ccc(-c2cccc3nc(-c4cccnc4)nn23)cc1				> 10000	
O=C(Nc1nc2cccc(-c3ccc(Cc4ccc(O)c(CO)c4)cc3)n2n1)C1CC1			1.7	8.3	solubility kinetic [5]: 28 µg/mL (≈ 67.6 µM)
C[C@@H]1CCN(C(=O)CC#N)C[C@@H]1N(C)c1ncnc2[nH]ccc12 [TOFACITINIB]					remaining at 1 h [10]: 27%
O=C(Nc1nc2cccc(-c3ccc(Cl)cc3)n2n1)C1CC1	28.2	7.4	3.1	156	
O=C(Nc1nc2cccc(-c3cccc4ncccc34)n2n1)C1CC1	> 1.6	1.5	0.7	2550	
COc1ccc(-c2cccc3nc(N(C)C(=O)C4CC4)nn23)cc1				> 10000	
COc1ccc(-c2cc(C(F)(F)F)cn3nc(NC(=O)C4CC4)nc23)cc1					IC50 [4]: Not Active
CCC(=O)Nc1nc2cccc(-c3ccc(OC)cc3)n2n1			0.5	1980	
CCOc1ccc(-c2nccc3nc(NC(=O)C4CC4)nn23)cc1			1.5	418	
COc1ccc(-c2cccc3nc(NC(=O)C(C)C)nn23)cc1				> 10000	
O=C(NCCc1ccn(-c2ccccc2)n1)c1ccc(-c2cccc3nc(NC(=O)C4CC4)nn23)cc1	66	21	5.3	0.6	solubility kinetic [5]: 4 µg/mL (≈ 8.14 µM); fraction unbound [6]: 0.01
O=C(Nc1nc2cccc(-c3ccc(CNC4CCS(=O)(=O)C4)cc3)n2n1)C1CC1 (stereo not given)	9.6	8	2.1	41	solubility kinetic [5]: > 85 µg/mL; remaining at 1 h [10]: 85%; IC50 [11]: > 30000 nM; IC50 [12]: 6150 nM
COc1ccc(-c2cccc3nc(N(C)C)nn23)cc1				> 10000	
O=C(Nc1nc2cccc(-c3ccc(CN4CCOCC4)cc3)n2n1)C1CC1					half-life [7]: 55.2 min; clearance [13]: 35.3 mL/min/kg; solubility kinetic [5]: > 38 µg/mL; Tmax [8]: 19.8 min; AUC(0-inf) [9]: 1440 ng·h/mL; remaining at 1 h [10]: 38%; bioavailability [14]: 45%; IC50 [11]: > 30000 nM; half-life [15]: 44.4 min; AUC(0-inf) [16]: 470 ng·h/mL; bioavailability [17]: 62%; fraction unbound [6]: 0.29

SMILES	Ratio IC50 (Homo sapiens [1])	Ratio IC50 (Homo sapiens [2])	Ratio IC50 (Homo sapiens [3])	IC50 ([4]; read-out: IC50) [nM]	other results
COc1ncc(-c2cccc3nc(NC(=O)C4CC4)nn23)cn1	> 4.1	> 4.1	2.1	975	
COc1ccc(-c2cccc3nc(N)nn23)cc1			0.6	3060	
COc1ccc(-c2cccc3nc(NC(C)=O)nn23)cc1				> 4000	
O=C(Nc1nc2cccc(-c3ccc(CNC(=O)C(F)(F)F)cc3)n2n1)C1CC1	6.2	9.5	2.6	16	solubility kinetic [5]: > 80 µg/mL; remaining at 1 h [10]: 80%; IC50 [11]: > 30000 nM; IC50 [12]: 4470 nM; fraction unbound [6]: 0.17
COc1ccc(-c2cccc3nc(NC(=O)c4ccccc4)nn23)cc1				> 10000	
COc1ccc(-c2cccc3nc(NCC4CC4)nn23)cc1				> 10000	
CNC(=O)Nc1nc2cccc(-c3ccc(OC)cc3)n2n1			0.7	413	
O=C(Nc1nc2cccc(-c3cn[nH]c3)n2n1)C1CC1	> 3	2.1	1.1	1350	
O=C(Nc1nc2cccc(-c3ccc(NS(=O)(=O)C4CC4)cc3)n2n1)C1CC1					fraction unbound [6]: 0.1
CCOc1ccc(-c2cccn3nc(NC(=O)C4CC4)nc23)cc1			2.2	67	
Nc1nc2cccc(-c3ccc(CN4CCS(=O)(=O)CC4)cc3)n2n1					IC50 [11]: > 100000 nM; IC50 [12]: 11900 nM
CCOc1ccc(-c2cncc3nc(NC(=O)C4CC4)nn23)cc1			1	3100	
N#Cc1ccc(OCC2CN(c3ccc(-c4cccc5nc(NC(=O)C6CC6)nn45)cc3)C2)cc1			7.5	147	
O=C(Nc1nc2cccc(-c3cccc(OCc4ccccc4)c3)n2n1)C1CC1	18	3	1	103	
COc1ccc(-c2cccc3nc(NC(=O)C4(C)CC4)nn23)cc1				> 10000	
O=C(Nc1nc2cccc(-c3cccc(Cl)c3)n2n1)C1CC1	2.4	6.7	1.1	142	
O=C(Nc1nc2nccc(-c3ccccc3)n2n1)C1CC1					IC50 [4]: Not Active
COc1ccc(-c2cccc3nc(NS(=O)(=O)C4CC4)nn23)cc1				5740	
COc1ccc(-c2cccc3nc(NC(=O)C4CC4)nn23)cn1	6.2	4.4	1.5	547	
COc1ccc(-c2cccc3nc(N4CCCCC4)nn23)cc1				> 10000	
COc1ccc(-c2cccc3nc(NC(=O)C4CC4)nn23)cc1	7.4	7.5	2	70	IC50 [18]: 40000 nM; IC50 [19]: > 10000 nM; IC50 [20]: > 5740 nM; IC50 [21]: > 4000 nM; IC50 [22]: > 10000 nM; IC50 [23]: 4440 nM; IC50 [24]: 138 nM; IC50 [25]: > 10000 nM; IC50 [26]: 51000 nM; IC50 [27]: 3180 nM; IC50 [28]: > 10000 nM; IC50 [29]: > 10000 nM; IC50 [30]: 24700 nM; IC50 [31]: 528 nM; IC50 [32]: 7110 nM; IC50 [33]: 2270 nM; IC50 [34]: 519 nM
CN1CCN(Cc2ccc(-c3cccc4nc(NC(=O)C5CC5)nn34)cc2)CC1				> 4000	
